From patent US20250332154A1, “USE OF NAPHTHOQUINE PHOSPHATE IN PREPARATION OF A MEDICAMENT FOR TREATING AUTOIMMUNE DISEASES” (SHANGHAI PHARMACEUTICALS INDUSTRY CO., LTD, priority 2022, published 2025)
Counter-ions that a name gives are not always drawn.

Key:
mouse spleen lymphocytes = assay: Non-specific cytotoxicity assay (MTT), mouse spleen lymphocytes; assay type: cell-based; conditions: mouse whole spleen lymphocytes, 48 hours, listed as Hydroxychloroquine Sulfate (Zhongxi Sunve)
Method: BALB/c mice were sacrificed by cervical dislocation, and spleens were aseptically excised to prepare whole spleen lymphocytes. The cells were adjusted to the required concentration. The compound concentrations started at 250 μM and was diluted with a 4-fold gradient to obtain 10 concentrations: 250, 62.5, 15.625, 3.906, 0.977, 0.244, 0.061, 0.015, 0.004 and 0.001 μM.
A suspension of mouse spleen lymphocytes was inoculated into a 96-well plate at 8×10^5/well, and the above 10 concentration gradients of the compound were added. A corresponding cell control (i.e. spleen lymphocyte culture system without compound) and a RPMI 1640 culture medium background control (blank culture medium control) were set up. The cells were cultured in a 37° C., 5% CO2 incubator for 48 hours. Four hours before the end of the culture, 20 μl of 5 mg/ml MTT solution was added, and the reaction continued until the end of the culture (i.e. the aforementioned 48 hours). The supernatant was aspirated and discarded, 200 μl DMSO was added to each well to dissolve the crystals. […]. The absorbance value was measured at […] with a microplate reader (Spectra Max 190, Molecular Devices).

anti-nuclear antibodies = assay: Anti-nuclear antibodies in serum of MRL/lpr mice (ANA kit); assay type: in vivo, mouse; conditions: intragastric 25, 50 mg/kg, FIG. 8
Method: Normal group, model group, positive medicament (1 mg/kg prednisone) group, naphthoquine phosphate (25, 50 mg/kg) group, hydroxychloroquine sulfate (100 mg/kg) group.
At the end of the experiment, eyeballs were removed to collect blood. ELISA method was used to detect the levels of anti-dsDNA antibodies in serum of experimental mice, and the anti-nuclear antibody kit was used to detect the levels of anti-nuclear antibodies. […] (Note: * P value<0.05, ** P value<0.01, *** P value<0.001, compared with model group.)

[1] = tested on: purified splenic B cells of arthritic mice; assay: TLRs-L-induced activation of purified splenic B cells from treated arthritic mice; assay type: in vivo, mouse; conditions: intragastric 50, 100 mg/kg, FIG. 6
Method: Normal group, model group, positive medicament (1 mg/kg methotrexate) group, naphthoquine phosphate (50, 100 mg/kg) group, hydroxychloroquine sulfate (100 mg/kg) group.
Same as those described in Example 5.
At the end of the experiment, spleens of mice in each group were collected, and splenic B cells were purified as described in Example 4. Different TLRs-L were used for stimulation. ^3H-TDR incorporation method was used to detect proliferation, ELISA method was used to detect the levels of IL-6 and antibody secretion, and flow cytometry was used to detect the expressions of CD80, CD86, and CD69.
Suspensions of purified mouse B cells from each group were inoculated into a 96-well plate at 4×10^5/well, and the stimulant TLR4-L (final concentration: 10 μg/ml), TLR7-L (final concentration: 5 μg/ml) or TLR9-L (final concentration: 1 μM) was added. […] 5 ml scintillation fluid was added, and the values of radioactive counts per minute were read on a Beta counter (2450 Microplate Counter, PerkinElmer).
Suspensions of purified mouse B cells from each group were inoculated into a 96-well plate at 4×10^5/well, and the stimulant TLR4-L (final concentration: 10 μg/ml), TLR7-L (final concentration: 5 μg/ml) or TLR9-L (final concentration: 1 μM) was added. […] After the end of the culture, the cell culture supernatants were collected, and the level of IL-6 was measured by ELISA. […]

[2] = tested on: bovine type II collagen-induced arthritis in mice; assay: Bone morphological analysis by Micro-CT in arthritic mice; assay type: in vivo, mouse; conditions: intragastric, FIG. 5
Method: (§1) Normal group, model group, positive medicament (1 mg/kg dexamethasone) group, naphthoquine phosphate (25, 50, 100 mg/kg) groups, hydroxychloroquine sulfate (100 mg/kg) group.
(§2) 10 mg of Type II Collagen (CII) was swollen in 2.5 ml of 0.1 mol/L glacial acetic acid to prepare a 4 mg/ml CII solution. This solution was fully emulsified with an equal volume of CFA, and injected subcutaneously (50 μl) at the base of the tail of mice. After 21 days, 4 mg/ml CII solution was fully emulsified with an equal volume of IFA. This mixture was injected subcutaneously (50 μL) at the base of the tail of mice to boost the immune response.
Three-dimensional reconstruction was performed by the micro-CT technology, and bone morphology analysis was performed by professional analysis software.

[3] = tested on: bovine type II collagen-induced arthritis in mice; assay: Bovine type II collagen-induced arthritis in mice: arthritis scoring and hindfoot thickness; assay type: in vivo, mouse
Method: as §1, §2
The severity of arthritis was scored by observing joint lesions of limbs of mice. Detectable arthritis accompanied by erythema in one or more fingers was scored as 1 point, moderate redness and swelling from the ankle joint to the middle of the foot was scored as 2 points, severe redness and swelling from the ankle joint to the fingers was scored as 3 points, and severe swelling with ankylosis was scored as 4 points. During scoring, bilateral hindfoot thickness was measured.

`CCN(CCO)CCCC(C)Nc1ccnc2cc(Cl)ccc12` (stereo not shown) [Hydroxychloroquine Sulfate, hydroxychloroquine sulfate] gave a CC50 (mouse spleen lymphocytes) of 25.2 µM.
For `CC(C)(C)NCc1cc(Nc2ccnc3cc(Cl)ccc23)c2c(c1O)CCCC2.O=P(O)(O)O.O=P(O)(O)O` [Naphthoquine Phosphate, Naphthoquine phosphate], the “levels of anti-nuclear antibodies in serum” value (anti-nuclear antibodies) was “significantly reduced”, the “B cell activation, cytokine secretion and antibody production mediated by TLR signaling” value [1] was “significantly inhibited” and the “bone damage in model mice (Micro-CT)” value [2] was “inhibited”. For the same compound, the “arthritis scores of model mice” value ([3]; intragastric, 25, 50, 100 mg/kg, FIG. 1, vs model group) was “significantly reduced”, the “foot swelling in arthritic mice” value ([3]; intragastric, FIG. 2) was “improved” and the “therapeutic effect on arthritis scores compared with hydroxychloroquine sulfate” value ([3]; same dose (100 mg/kg), FIG. 1) was “superior to that of hydroxychloroquine sulfate at the same dose”.
